How the values were obtained:
[1] = Nitric oxide radical scavenging activity at 0.1 mg/ml; format: functional
[2] = DPPH radical scavenging activity at 0.1 mg/ml; format: functional

Row | Structure (SMILES) | Activity [1] | Activity [2]
1 | O=C1O[C@H]([C@@H](O)CO)C(O)=C1O | 66% | 
2 | COc1cc2c(c(OC)c1C)C(=O)Nc1ccc(O)c(C)c1O2 | 63% | 25%
3 | COc1cc2c(c(O)c1C)C(=O)Nc1ccc(O)cc1O2 | 59% | 
